Reference: paper PMC10507085, “Pharmacological inhibition of TBK1/IKKε blunts immunopathology in a murine model of SARS-CoV-2 infection” (Nature Communications, 2023)

Assays:
Assay in all cases: biochemical
Design in all cases: KINOMEscan competition binding, DNA-tagged kinase against immobilised ligand, qPCR read-out
Details in all cases: read-out: Percent Control
DAPK3 = DAPK3 (Homo sapiens, UniProt O43293)
MAP3K15 = MAP3K15 (Homo sapiens, UniProt Q6ZN16)
RIPK1 = RIPK1 (Homo sapiens, UniProt Q13546)
[1] = target: T1, TYK2(JH2domain-pseudokinase) (Homo sapiens, UniProt P29597)
T1 construct: JH2 domain pseudokinase
T1 sequence (P29597 whole entry, the tested form may be a part): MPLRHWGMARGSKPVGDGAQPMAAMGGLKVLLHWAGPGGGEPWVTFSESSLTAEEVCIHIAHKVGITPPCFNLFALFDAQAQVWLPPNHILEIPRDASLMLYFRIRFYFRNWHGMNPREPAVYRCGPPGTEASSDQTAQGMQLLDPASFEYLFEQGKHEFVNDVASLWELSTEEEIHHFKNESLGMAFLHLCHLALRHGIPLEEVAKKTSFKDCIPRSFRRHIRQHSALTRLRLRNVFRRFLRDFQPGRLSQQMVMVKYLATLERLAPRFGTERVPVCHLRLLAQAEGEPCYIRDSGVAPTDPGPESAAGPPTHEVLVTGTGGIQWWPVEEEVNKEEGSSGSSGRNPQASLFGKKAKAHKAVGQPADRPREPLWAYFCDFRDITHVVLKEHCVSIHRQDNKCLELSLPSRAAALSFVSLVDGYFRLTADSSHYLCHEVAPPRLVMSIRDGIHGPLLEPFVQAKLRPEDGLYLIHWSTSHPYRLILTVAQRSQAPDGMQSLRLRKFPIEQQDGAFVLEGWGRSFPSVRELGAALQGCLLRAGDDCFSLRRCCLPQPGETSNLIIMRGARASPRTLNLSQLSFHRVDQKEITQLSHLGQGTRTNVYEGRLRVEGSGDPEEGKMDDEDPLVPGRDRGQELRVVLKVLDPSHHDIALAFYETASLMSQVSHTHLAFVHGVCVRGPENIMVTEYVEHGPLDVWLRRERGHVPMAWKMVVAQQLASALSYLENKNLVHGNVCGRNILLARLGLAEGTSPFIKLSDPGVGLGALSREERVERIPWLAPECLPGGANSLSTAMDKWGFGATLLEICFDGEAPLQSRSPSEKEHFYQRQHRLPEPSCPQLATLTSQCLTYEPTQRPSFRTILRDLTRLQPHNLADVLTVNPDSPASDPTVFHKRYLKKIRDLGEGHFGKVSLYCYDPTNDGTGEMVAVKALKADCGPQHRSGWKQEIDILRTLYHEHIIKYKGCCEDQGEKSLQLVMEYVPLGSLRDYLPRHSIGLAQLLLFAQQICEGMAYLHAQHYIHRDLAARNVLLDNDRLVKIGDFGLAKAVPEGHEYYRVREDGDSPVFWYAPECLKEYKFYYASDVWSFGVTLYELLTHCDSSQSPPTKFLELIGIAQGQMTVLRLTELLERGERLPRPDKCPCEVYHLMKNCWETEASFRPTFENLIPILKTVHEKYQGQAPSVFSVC

PLK4 = PLK4 (Homo sapiens, UniProt O00444)
PLK4, sequence (O00444 whole entry): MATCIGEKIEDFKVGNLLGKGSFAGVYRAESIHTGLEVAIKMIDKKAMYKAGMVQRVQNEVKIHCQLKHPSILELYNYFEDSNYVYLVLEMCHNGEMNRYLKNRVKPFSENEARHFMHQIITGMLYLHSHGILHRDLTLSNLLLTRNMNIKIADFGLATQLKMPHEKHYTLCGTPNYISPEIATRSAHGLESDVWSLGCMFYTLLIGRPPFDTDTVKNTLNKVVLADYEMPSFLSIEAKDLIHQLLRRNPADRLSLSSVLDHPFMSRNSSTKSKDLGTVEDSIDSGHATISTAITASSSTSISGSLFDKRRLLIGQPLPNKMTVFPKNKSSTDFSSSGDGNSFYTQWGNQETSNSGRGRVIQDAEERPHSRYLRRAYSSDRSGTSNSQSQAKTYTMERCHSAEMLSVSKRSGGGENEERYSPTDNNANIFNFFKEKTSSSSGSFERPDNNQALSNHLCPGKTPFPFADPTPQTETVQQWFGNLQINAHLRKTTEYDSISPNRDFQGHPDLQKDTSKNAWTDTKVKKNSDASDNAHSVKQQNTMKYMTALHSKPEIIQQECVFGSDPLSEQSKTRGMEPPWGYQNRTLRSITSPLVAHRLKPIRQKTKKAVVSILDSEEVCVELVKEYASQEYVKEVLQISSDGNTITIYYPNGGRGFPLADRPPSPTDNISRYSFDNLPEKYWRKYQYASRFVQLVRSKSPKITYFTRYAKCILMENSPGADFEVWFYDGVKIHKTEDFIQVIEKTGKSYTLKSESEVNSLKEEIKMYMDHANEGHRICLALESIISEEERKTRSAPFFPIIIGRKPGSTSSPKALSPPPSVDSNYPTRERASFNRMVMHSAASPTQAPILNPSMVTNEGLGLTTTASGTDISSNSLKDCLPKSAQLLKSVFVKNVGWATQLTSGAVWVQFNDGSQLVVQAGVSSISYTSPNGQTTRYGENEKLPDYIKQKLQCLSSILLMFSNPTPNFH

GRK4 = GRK4 (Homo sapiens, UniProt P32298)
MAP2K3 = MAP2K3 (Homo sapiens, UniProt P46734)
CDK13 = CDK13 (Homo sapiens, UniProt Q14004)
NEK9 = NEK9 (Homo sapiens, UniProt Q8TD19)
TLK1 = TLK1 (Homo sapiens, UniProt Q9UKI8)
SGK2 = SGK2 (Homo sapiens, UniProt Q9HBY8)
STK24 = STK24 (Homo sapiens, UniProt Q9Y6E0)
STK24, sequence (Q9Y6E0 whole entry): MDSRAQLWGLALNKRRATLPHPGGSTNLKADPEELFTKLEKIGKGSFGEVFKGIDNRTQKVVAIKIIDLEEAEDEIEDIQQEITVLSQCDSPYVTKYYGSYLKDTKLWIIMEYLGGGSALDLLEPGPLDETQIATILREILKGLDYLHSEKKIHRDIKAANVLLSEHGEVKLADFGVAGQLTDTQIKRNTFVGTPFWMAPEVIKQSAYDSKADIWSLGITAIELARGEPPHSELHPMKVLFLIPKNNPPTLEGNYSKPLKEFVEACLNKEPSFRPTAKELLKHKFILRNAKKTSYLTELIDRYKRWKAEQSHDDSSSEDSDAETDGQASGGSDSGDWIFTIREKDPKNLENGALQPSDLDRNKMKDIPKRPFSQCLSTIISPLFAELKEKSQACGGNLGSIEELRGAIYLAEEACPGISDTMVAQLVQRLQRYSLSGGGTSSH

MKNK2 = MKNK2 (Homo sapiens, UniProt Q9HBH9)
ACVRL1 = ACVRL1 (Homo sapiens, UniProt P37023)
ACVRL1, sequence (P37023 whole entry): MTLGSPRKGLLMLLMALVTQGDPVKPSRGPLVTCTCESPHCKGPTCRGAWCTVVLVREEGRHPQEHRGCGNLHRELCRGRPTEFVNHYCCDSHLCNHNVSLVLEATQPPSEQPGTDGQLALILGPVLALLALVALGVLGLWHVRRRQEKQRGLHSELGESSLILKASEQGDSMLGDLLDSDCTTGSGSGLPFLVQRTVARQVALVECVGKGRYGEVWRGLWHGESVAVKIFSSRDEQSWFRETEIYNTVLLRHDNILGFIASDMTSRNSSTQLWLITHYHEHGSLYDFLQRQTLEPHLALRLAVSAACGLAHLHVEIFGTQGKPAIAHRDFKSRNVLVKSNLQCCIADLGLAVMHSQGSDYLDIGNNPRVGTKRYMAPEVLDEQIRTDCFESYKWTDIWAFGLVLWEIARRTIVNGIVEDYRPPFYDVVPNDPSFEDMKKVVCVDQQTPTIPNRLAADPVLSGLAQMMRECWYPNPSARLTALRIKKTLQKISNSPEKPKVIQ

MYLK3 = MYLK3 (Homo sapiens, UniProt Q32MK0)
MYO3B = MYO3B (Homo sapiens, UniProt Q8WXR4)
LIMK2 = LIMK2 (Homo sapiens, UniProt P53671)
LIMK2, sequence (P53671 whole entry): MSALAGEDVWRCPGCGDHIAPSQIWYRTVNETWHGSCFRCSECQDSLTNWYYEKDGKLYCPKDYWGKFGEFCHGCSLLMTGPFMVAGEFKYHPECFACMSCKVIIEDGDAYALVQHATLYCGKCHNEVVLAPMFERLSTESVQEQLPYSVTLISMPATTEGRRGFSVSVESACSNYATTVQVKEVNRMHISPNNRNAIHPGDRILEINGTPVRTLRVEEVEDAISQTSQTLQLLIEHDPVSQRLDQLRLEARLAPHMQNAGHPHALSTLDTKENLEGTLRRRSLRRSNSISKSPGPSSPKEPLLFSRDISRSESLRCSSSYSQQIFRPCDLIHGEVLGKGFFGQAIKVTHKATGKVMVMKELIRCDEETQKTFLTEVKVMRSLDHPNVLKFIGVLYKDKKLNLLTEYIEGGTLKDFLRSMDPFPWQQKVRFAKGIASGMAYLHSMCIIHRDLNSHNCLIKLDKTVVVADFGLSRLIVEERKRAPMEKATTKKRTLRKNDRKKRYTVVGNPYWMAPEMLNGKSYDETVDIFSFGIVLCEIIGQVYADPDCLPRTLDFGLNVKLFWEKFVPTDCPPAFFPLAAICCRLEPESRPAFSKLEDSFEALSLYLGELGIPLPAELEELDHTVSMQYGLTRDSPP

PDGFRB = PDGFRB (Homo sapiens, UniProt P09619)
PDGFRB, sequence (P09619 whole entry): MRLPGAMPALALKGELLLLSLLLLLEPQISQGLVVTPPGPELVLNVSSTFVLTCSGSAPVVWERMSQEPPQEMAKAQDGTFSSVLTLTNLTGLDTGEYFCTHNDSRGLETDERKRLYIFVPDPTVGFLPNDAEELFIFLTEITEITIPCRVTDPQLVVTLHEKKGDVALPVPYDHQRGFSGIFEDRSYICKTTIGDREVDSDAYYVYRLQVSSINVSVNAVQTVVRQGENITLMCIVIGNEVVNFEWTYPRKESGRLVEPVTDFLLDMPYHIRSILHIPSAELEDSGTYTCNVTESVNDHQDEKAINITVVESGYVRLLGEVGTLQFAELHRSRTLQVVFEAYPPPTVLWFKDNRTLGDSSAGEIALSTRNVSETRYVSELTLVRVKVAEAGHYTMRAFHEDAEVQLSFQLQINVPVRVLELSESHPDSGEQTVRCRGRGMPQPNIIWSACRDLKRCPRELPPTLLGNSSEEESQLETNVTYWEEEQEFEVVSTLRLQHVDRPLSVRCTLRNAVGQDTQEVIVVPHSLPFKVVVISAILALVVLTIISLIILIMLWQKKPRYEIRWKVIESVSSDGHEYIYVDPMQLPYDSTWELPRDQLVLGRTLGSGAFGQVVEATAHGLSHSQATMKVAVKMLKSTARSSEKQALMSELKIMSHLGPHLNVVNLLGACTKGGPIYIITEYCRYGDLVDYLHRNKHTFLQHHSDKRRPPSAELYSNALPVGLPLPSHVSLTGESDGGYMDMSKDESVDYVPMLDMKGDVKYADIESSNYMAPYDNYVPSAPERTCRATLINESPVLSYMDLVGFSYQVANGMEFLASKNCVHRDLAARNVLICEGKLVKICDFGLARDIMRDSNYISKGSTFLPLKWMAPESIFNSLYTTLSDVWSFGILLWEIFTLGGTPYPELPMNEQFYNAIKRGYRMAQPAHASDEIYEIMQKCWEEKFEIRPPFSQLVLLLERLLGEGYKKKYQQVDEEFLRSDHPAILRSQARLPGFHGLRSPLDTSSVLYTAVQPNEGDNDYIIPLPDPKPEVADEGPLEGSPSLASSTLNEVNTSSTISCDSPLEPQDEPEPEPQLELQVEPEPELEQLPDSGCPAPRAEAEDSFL

PIP5K1A = PIP5K1A (Homo sapiens, UniProt Q99755)
STK35 = STK35 (Homo sapiens, UniProt Q8TDR2)

Oc1ccc(C2=Cc3ccc(O)cc3OC2)cc1 [compound 1, idronoxil]
remaining binding at 10 µM (DAPK3): 49%
remaining binding at 10 µM (MAP3K15): 100%
remaining binding at 10 µM (RIPK1): 78%
remaining binding at 10 µM [1]: 8.3%
remaining binding at 10 µM (PLK4): 88%
remaining binding at 10 µM (GRK4): 68%
remaining binding at 10 µM (MAP2K3): 56%
remaining binding at 10 µM (CDK13): 100%
remaining binding at 10 µM (NEK9): 100%
remaining binding at 10 µM (TLK1): 71%
remaining binding at 10 µM (SGK2): 95%
remaining binding at 10 µM (STK24): 79%
remaining binding at 10 µM (MKNK2): 54%
remaining binding at 10 µM (ACVRL1): 92%
remaining binding at 10 µM (MYLK3): 66%
remaining binding at 10 µM (MYO3B): 100%
remaining binding at 10 µM (LIMK2): 90%
remaining binding at 10 µM (PDGFRB): 18%
remaining binding at 10 µM (PIP5K1A): 75%
remaining binding at 10 µM (STK35): 88%
